Assay results taken from US4320052A, “Derivatives of A-30912A nucleus” (Eli Lilly and Company, priority 1980, dated 1982).
Several values for one entry are separate records, joined by “and”; a condition that tells them apart may be missing. Equal values may be shown once. Read-outs that look alike come from different tables or passages of the source. Numbered stars: 1 amine (or outer) side, 2 acyl side, 3 side chain; on linkers, the order of the positions; unused ones are H or OH. Bridge positions count the residues as written; N and C are the ends. Square brackets hold non-standard residues; d marks the D form. Peptide text beside a SMILES is read from it. * marks the point of attachment. Orn(4R-OH,5R-OH) = O=C([C@H](C[C@@H](O)[C@@H](O)N[*:3])N[*:1])[*:2]; hTyr(3S-OH,4S-OH) = N[C@H](C(=O)O)[C@H](O)[C@@H](O)c1ccc(O)cc1; Pro(3S-OH,4S-Me) = C[C@H]1CN[C@H](C(=O)O)[C@H]1O; Palmitoleoyl = CCCCCC/C=C\CCCCCCCC(=O)*; Heptadecanoyl = CCCCCCCCCCCCCCCCC(=O)*; Oleoyl = CCCCCCCC/C=C\CCCCCCCC(=O)*; X4 = CCCCCCCC/C=C\CCCCCCCCCC(=O)*; Hyp = O=C(O)[C@@H]1C[C@@H](O)CN1; X3 = CCCCCCCC/C=C/CCCCCCCC(=O)*; X6 = CCCCCC/C=C\CCCCCCCCCC(=O)*; X5 = CCCCCC/C=C/CCCCCCCC(=O)*; Lauroyl = CCCCCCCCCCCC(=O)*

What was measured:
[1] = Blood levels after oral administration in mice (bioassay vs. Aspergillus montevidensis A35137); settings: mouse, in vivo; for Blood Levels After Oral Administration In Mice: 240 min; for concentration at 4 h: po, 416 mg/kg
From the text: determined by bioassay vs. Aspergillus montevidensis A35137.

[2] = system: Trichophyton mentagrophytes #6; experiment: Agar plate disc diffusion test (MIC); format: cell-based; settings: 0.01M sodium borate pH 7.5; 20 μg/disc top, twofold dilutions; 24 hours, 30° C.
Experimental: (§1) Tables II and III give the results of the testing in vitro of the compounds of Examples 1-16 by agar-plate disc-diffusion methods. In Table II activity is measured by the size (diameter in mm.) of the observed zone of inhibition of the microorganism produced by the test compound. In Table III, activity is measured by the minimal inhibitory concentration (MIC) of the substance (μg/dic) required to inhibit growth of the test organism. Table IV gives the results of the testing in vitro of the n-tridecanoyl derivative of A30912A nucleus (Formula III, R is n-C12 H25) against five strains of Candida albicans by the agar dilution method. In […] activity is measured by the minimal inhibitory concentration (MIC) of the substance (μg/ml) required to inhibit the test organism.
(§2) *Compounds were suspended in 0.01M sodium borate solution, pH 7.5. The
(§3) compounds were tested at 20 μg/disc at top level and at twofold
(§4) dilutions until end points were reached. Incubation: 24 hours; 30°

Candida albicans A-26 [3] = experiment: Agar plate disc diffusion test (MIC); format: cell-based; settings: 0.01M sodium borate pH 7.5; 20 μg/disc top, twofold dilutions; 24 hours, 30° C.
Experimental: as §1, §2, §3, §4

Neurospora crassa 846 = experiment: Agar plate disc diffusion test (zone of inhibition); format: cell-based; settings: Neurospora crassa, 846, suspension in methanol 1 mg/ml, 7mm disc
Experimental: as §1
(§5) ^(a) Compounds were tested as suspension in methanol at a
(§6) concentration of 1 mg/ml. by dipping a 7mm disc into the suspension and
(§7) placing it on the agar surface. Incubation: 24-48 hours at 25-37°

Candida albicans A-26 [4] = experiment: as above; format: cell-based; settings: suspension in methanol 1 mg/ml, 7mm disc; 24-48 hours at 25-37° C.
Experimental: as §1, §5, §6, §7

[5] = system: Saccharomyces pastoranius X-52; experiment: as above; format: cell-based, Saccharomyces pastorianus; settings: X52, suspension in methanol 1 mg/ml, 7mm disc, 24-48 hours at 25-37° C., read-out: Size of zone of inhibition, Saccharomyces pastoranius X-52
Experimental: as §1, §5, §6, §7

Candida albicans A-26 [6] = experiment: In vivo activity against Candida albicans A-26 infection in mice; set-up: species or system mice infected with Candida albicans A-26; settings: mice, subcutaneous; for ED50 / minimal effective dose: Candida albicans, A26, sc, 24 h; for ED50: increase in survival time, read-out: ED50; for minimal effective dose: read-out: Lowest Active Dose
Experimental: The results of in vivo tests to evaluate the effectiveness of the compound of Examples 1-16 against an infection caused by Candida albicans A-26 in mice are given in Table V, where activity is measured by the ED50 value (the dose in mg/kg. required to cure 50% of the test animals). Where an ED50 value was not obtained, activity is indicated by the lowest dose at which a significant anti-fungal effect is observed. In this test, groups of male albino mice (specific pathogen free), weighing 18 to 20 grams, are infected intravenously with Candida albicans A-26. The animals are X-irradiated 24 hours prior to infection at about 50 roentgens per minute for 8 minutes (400 total dose) to reduce immune responses to the infecting organism. At 0, 4, and 24 hours post infection each group of mice is given graded doses subcutaneously of the test compound as a suspension in 33% polyethylene glycol-water. The day of death for each animal is recorded.
mg/kg. Dosages given 0, 4, and 24 hours post injection as suspension of
test compound in 30% PEG--H2 O. Number of mice receiving test
compounds at each dosage level; 6 mice per group. Number of mice in
control (untreated) group: 10 mice per group.
**As measured by increase in survival time of treated animals versus
control, calculated by method of Reed v Mueuch, American J. Hygiene, 27,

[7] = system: Trichophyton mentagraphytes A-23; experiment: Agar plate disc diffusion test (zone of inhibition); format: cell-based, Trichophyton mentagrophytes; settings: A23, suspension in methanol 1 mg/ml, 7mm disc
Experimental: as §1, §5, §6, §7

[8] = 24-48 hours at 25-37° C., read-out: Size of zone of inhibition, Neurospora crassa 846
[9] = schedule B (80, 40, 20, 10 mg/kg), 0, 4, 24 hours
[10] = *distinct measurable zone of inhibition with regrowth of organism around disc, read-out: Size of zone of inhibition, Trichophyton mentagraphytes A-23 (*)
[11] = schedule A (40, 20, 15, and 10 mg/kg), 0, 4, 24 hours

| Compound | Blood Levels After Oral Administration In Mice [1] | MIC, Trichophyton mentagrophytes #6 [2] | MIC, Candida albicans A-26 (Candida albicans A-26 [3]) | zone of inhibition at 1000 µg/mL (Neurospora crassa 846; [8]) | Size of zone of inhibition, Candida albicans A-26 (Candida albicans A-26 [4]) | zone of inhibition at 1000 µg/mL [5] | ED50 (Candida albicans A-26 [6]; [9]) | minimal effective dose (Candida albicans A-26 [6]; [9]) | zone of inhibition at 1000 µg/mL [7, 10] | zone of inhibition at 1000 µg/mL (Neurospora crassa 846; *distinct measurable zone of inhibition with regrowth of organism around disc, read-out: Size of zone of inhibition, Neurospora crassa 846 (*)) | ED50 (Candida albicans A-26 [6]; [11]) | minimal effective dose (Candida albicans A-26 [6]; [11]) | concentration at 4 h [1] | zone of inhibition at 1000 µg/mL ([7]; 24-48 hours at 25-37° C., read-out: Size of zone of inhibition, Trichophyton mentagraphytes A-23) | Lowest Active Dose (Candida albicans A-26 [6]; [11]) |
| --- | --- | --- | --- | --- | --- | --- | --- | --- | --- | --- | --- | --- | --- | --- | --- |
| CCCCCCCCCCCC(=O)N[C@H]1C[C@@H](O)[C@@H](O)NC(=O)[C@@H]2[C@@H](O)[C@@H](C)CN2C(=O)[C@H]([C@@H](C)O)NC(=O)[C@H]([C@H](O)[C@@H](O)c2ccc(O)cc2)NC(=O)[C@@H]2C[C@@H](O)CN2C(=O)[C@H]([C@@H](C)O)NC1=O [Example 1] (Lauroyl-[Orn(4R-OH,5R-OH)]T[Hyp][hTyr(3S-OH,4S-OH)]T[Pro(3S-OH,4S-Me)]; lactam 1-C) | 0 ng/mL | 0.078 μg/disc | 1.25 μg/disc | 40 mm | 25 mm | 16 mm | 62 mg/kg | 20 mg/kg | – | – | – | – | – | – | – |
| CCCCCC/C=C/CCCCCCCC(=O)N[C@H]1C[C@@H](O)[C@@H](O)NC(=O)[C@@H]2[C@@H](O)[C@@H](C)CN2C(=O)[C@H]([C@@H](C)O)NC(=O)[C@H]([C@H](O)[C@@H](O)c2ccc(O)cc2)NC(=O)[C@@H]2C[C@@H](O)CN2C(=O)[C@H]([C@@H](C)O)NC1=O [Example 3] (X5-[Orn(4R-OH,5R-OH)]T[Hyp][hTyr(3S-OH,4S-OH)]T[Pro(3S-OH,4S-Me)]; lactam 1-C) | – | – | – | – | 24 mm | 19 mm | – | – | 50 mm | 40 mm | 40 mg/kg | 20 mg/kg | – | – | – |
| CCCCCC/C=C\CCCCCCCC(=O)N[C@H]1C[C@@H](O)[C@@H](O)NC(=O)[C@@H]2[C@@H](O)[C@@H](C)CN2C(=O)[C@H]([C@@H](C)O)NC(=O)[C@H]([C@H](O)[C@@H](O)c2ccc(O)cc2)NC(=O)[C@@H]2C[C@@H](O)CN2C(=O)[C@H]([C@@H](C)O)NC1=O [Example 4] (Palmitoleoyl-[Orn(4R-OH,5R-OH)]T[Hyp][hTyr(3S-OH,4S-OH)]T[Pro(3S-OH,4S-Me)]; lactam 1-C) | – | < 0.039 μg/disc | – | – | – | – | – | – | – | – | > 40 mg/kg | 20 mg/kg | 190 ng/mL | – | – |
| CCCCCCCCCCCCCCCCC(=O)N[C@H]1C[C@@H](O)[C@@H](O)NC(=O)[C@@H]2[C@@H](O)[C@@H](C)CN2C(=O)[C@H]([C@@H](C)O)NC(=O)[C@H]([C@H](O)[C@@H](O)c2ccc(O)cc2)NC(=O)[C@@H]2C[C@@H](O)CN2C(=O)[C@H]([C@@H](C)O)NC1=O [Example 5] (Heptadecanoyl-[Orn(4R-OH,5R-OH)]T[Hyp][hTyr(3S-OH,4S-OH)]T[Pro(3S-OH,4S-Me)]; lactam 1-C) | – | 0.039 μg/disc | 0.625 μg/disc | 21 mm | 18 mm | 30 mm | – | – | 40 mm | – | 9 mg/kg | ≥ 5 mg/kg | 97000 ng/mL | – | – |
| CCCCCCCC/C=C\CCCCCCCC(=O)N[C@H]1C[C@@H](O)[C@@H](O)NC(=O)[C@@H]2[C@@H](O)[C@@H](C)CN2C(=O)[C@H]([C@@H](C)O)NC(=O)[C@H]([C@H](O)[C@@H](O)c2ccc(O)cc2)NC(=O)[C@@H]2C[C@@H](O)CN2C(=O)[C@H]([C@@H](C)O)NC1=O [Example 7] (Oleoyl-[Orn(4R-OH,5R-OH)]T[Hyp][hTyr(3S-OH,4S-OH)]T[Pro(3S-OH,4S-Me)]; lactam 1-C) | 0 ng/mL | – | 0.625 μg/disc | 18 mm | 23 mm | 19 mm | – | – | – | – | – | 10 mg/kg | – | 1 mm | 20 mg/kg |
| CCCCCCCC/C=C/CCCCCCCC(=O)N[C@H]1C[C@@H](O)[C@@H](O)NC(=O)[C@@H]2[C@@H](O)[C@@H](C)CN2C(=O)[C@H]([C@@H](C)O)NC(=O)[C@H]([C@H](O)[C@@H](O)c2ccc(O)cc2)NC(=O)[C@@H]2C[C@@H](O)CN2C(=O)[C@H]([C@@H](C)O)NC1=O [Example 8] (X3-[Orn(4R-OH,5R-OH)]T[Hyp][hTyr(3S-OH,4S-OH)]T[Pro(3S-OH,4S-Me)]; lactam 1-C) | – | < 0.039 μg/disc | 0.156 μg/disc | 32 mm | 21 mm | 18 mm | – | – | 31 mm | – | 11 mg/kg | 10 mg/kg | 65000 ng/mL | – | – |
| CCCCCC/C=C\CCCCCCCCCC(=O)N[C@H]1C[C@@H](O)[C@@H](O)NC(=O)[C@@H]2[C@@H](O)[C@@H](C)CN2C(=O)[C@H]([C@@H](C)O)NC(=O)[C@H]([C@H](O)[C@@H](O)c2ccc(O)cc2)NC(=O)[C@@H]2C[C@@H](O)CN2C(=O)[C@H]([C@@H](C)O)NC1=O [Example 9] (X6-[Orn(4R-OH,5R-OH)]T[Hyp][hTyr(3S-OH,4S-OH)]T[Pro(3S-OH,4S-Me)]; lactam 1-C) | – | < 0.039 μg/disc | 0.312 μg/disc | – | – | – | – | – | – | – | > 40 mg/kg | 40 mg/kg | 4200 ng/mL | – | – |
| CCCCCCCC/C=C\CCCCCCCCCC(=O)N[C@H]1C[C@@H](O)[C@@H](O)NC(=O)[C@@H]2[C@@H](O)[C@@H](C)CN2C(=O)[C@H]([C@@H](C)O)NC(=O)[C@H]([C@H](O)[C@@H](O)c2ccc(O)cc2)NC(=O)[C@@H]2C[C@@H](O)CN2C(=O)[C@H]([C@@H](C)O)NC1=O [Example 14] (X4-[Orn(4R-OH,5R-OH)]T[Hyp][hTyr(3S-OH,4S-OH)]T[Pro(3S-OH,4S-Me)]; lactam 1-C) | – | – | 1.25 μg/disc and 2.5 μg/disc | 18 mm | 22 mm | 18 mm | – | – | 23 mm | – | – | 10 mg/kg | – | – | – |
